Each structure is given as a SMILES string. Values joined by “and” are separate entries in the source; they are usually repeats but may differ in a detail not shown here. Equal values may be shown once. Where a name gives a salt, the structure may show the parent alone.

The text below walks through data of US5189038A, “Method of stimulating superoxide generation” (G. D. Searle and Co., priority 1991, dated 1993).

The subject of assay [1] is FMLP-stimulated human neutrophils (superoxide generation). Put plainly: Human neutrophil superoxide generation (FMLP-stimulated, cytochrome C reduction). The class given is cell-based. The conditions noted are these: for activation at 5 µM / activation at 10 µM: read-out: Stimulation of FMLP Induced Superoxide, above control; for Stimulation of FMLP Induced Superoxide: concentrations at which compound stimulates: "Stimulates at" concentration range. As to the method:
The compounds of the invention are evaluated with respect to superoxide modulating activity according to the following assay procedure:
Human neutrophil superoxide generation: Superoxide generation by formyl-methionyl-leucyl-phenylalanine (FMLP)-stimulated neutrophils was quantitated by the reduction of cytochrome C (Badwey, J. A., Curnutte, J. T. and Karnovsky, M. L., cis-Polyunsaturated fatty acids induce high levels of superoxide production by human neutrophils. J. Biol. Chem. 256: 12640-12643, 1981.) To 5 million neutrophils in 2.85 ml of KrebsRinger phosphate buffer, pH 7.2, 50 ul of inhibitor (in 10% DMSO/buffer), and 50 ul ferricytochrome C (5 mM, stock) were added and preincubated for 3 minutes at 37° C. Absorption measurements at 550 nm were recorded at start of preincubation. Fifty ul FMLP (6 uM, stock) was added to initiate reaction. A plateau was reached within 3 minutes and this reading--initial reading (before addition of FMLP) was used to calculate nanomoles of superoxide generated based on a molar extinction coefficient of 2.1×10^4 cm^-1 mole^-1.
Isolation of human neutrophils: Human neutrophils were isolated from freshly drawn blood of healthy donors. Two ml of 5% dextran (MW 200,000-300,000) in saline was added to 10 ml aliquots of blood, mixed and placed upright for 45 min. at 37° C. Approx. 8-10 ml of the plasma-white cell suspension from the dextran sedimentation was layered on 3 ml of Ficol-paque in a 15 ml tube and centrifuged at 400 g for 30 min. The supernate, containing plasma and platelets, was discarded by aspiration, and the pellet, containing predominantly neutrophils, was resuspended in 1 ml saline. The suspension was transferred to a clean tube, and pooled with other aliquots of blood treated similarly. The pooled suspension was centrifuged at 350 g for 5 min. and supernate discarded. The pellet was resuspended in 5 ml of 0.05% NaCl with a plastic Pasteur pipette for 25 seconds to lyse contaminating red cells, then 5 ml of 1.75% NaCl added to regain isotonicity. The red cell lysing procedure was repeated, the cells suspended in appropriate buffer (depending on assay) and counted.
For comparison the compound of Formula IV, a known 5-lipoxygenase inhibitor described in U.S. Pat. No. 4,755,524 was used. [drawing 20] (±)[2S*-[[3.5-bis(1,1-dimethylethyl)-4-hydroxyphenyl]thio]-1R*-methylpro poxy]acetic acid

The target in assay [2] is T1, 5-lipoxygenase (Rattus norvegicus, UniProt P12527).
T1 construct: supernatant fraction of Rat Basophilic Leukemia Cell Homogenate (RBL-1) serves as a 5-lipoxygenase enzyme source; endogenous in cells; host or cells: RBL-1 (rat basophilic leukemia) cells, 100,000×g supernatant of homogenate
T1 sequence (P12527 1-673): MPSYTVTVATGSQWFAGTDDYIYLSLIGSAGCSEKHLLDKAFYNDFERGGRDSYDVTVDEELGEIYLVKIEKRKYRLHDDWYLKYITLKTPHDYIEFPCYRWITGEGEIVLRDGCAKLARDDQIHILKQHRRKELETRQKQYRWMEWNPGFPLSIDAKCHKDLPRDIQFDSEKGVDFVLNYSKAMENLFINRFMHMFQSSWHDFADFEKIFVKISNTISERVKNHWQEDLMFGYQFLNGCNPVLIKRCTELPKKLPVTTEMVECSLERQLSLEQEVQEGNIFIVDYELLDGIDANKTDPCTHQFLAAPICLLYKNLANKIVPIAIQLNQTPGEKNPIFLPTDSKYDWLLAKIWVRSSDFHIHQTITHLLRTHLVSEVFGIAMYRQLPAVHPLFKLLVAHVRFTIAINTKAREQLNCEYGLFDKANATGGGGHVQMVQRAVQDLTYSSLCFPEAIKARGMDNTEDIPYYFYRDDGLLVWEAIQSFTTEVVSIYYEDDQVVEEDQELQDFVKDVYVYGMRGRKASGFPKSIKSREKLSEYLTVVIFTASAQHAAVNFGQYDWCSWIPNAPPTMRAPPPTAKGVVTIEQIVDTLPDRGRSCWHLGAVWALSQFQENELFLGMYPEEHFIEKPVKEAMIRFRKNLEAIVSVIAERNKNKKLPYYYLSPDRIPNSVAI
Briefly: Inhibition of 5-lipoxygenase, in vitro (5-HETE synthesis by RBL-1 100,000×g supernatant). The class given is biochemical. To be noted: for IC50: RBL-1 homogenate supernatant, 5-HETE synthesis. The procedure: The compounds of the invention are evaluated with respect to 5-lipoxygenaseinhibition according to the following assay procedure.
Inhibition of 5-lipoxygenase, in vitro:
anti-inflammatory, anti-allergy activities.
The 100,000×g supernatant fraction of Rat Basophilic Leukemia Cell Homogenate (RBL-1) serves as a 5-lipoxygenase enzyme source. The enzyme is incubated with [1-^14 C)-arachidonic acid and Ca++ in the presence and absence of test compound. The product of 5-lipoxygenase, 5-hydroxyeicosatetraenoic acid (5-HETE), is separated by thin-layer chromatography and measured by radioactivity. A compound inhibiting 5-HETE synthesis by 30% or more is considered active at that concentration.

As to `C[C@H](Sc1cc(C(C)(C)C)c(O)c(C(C)(C)C)c1)[C@@H](C)OCC(=O)O` (relative stereo) [Formula IV, (±)[2S*-[[3.5-bis(1,1-dimethylethyl)-4-hydroxyphenyl]thio]-1R*-methylpropoxy]acetic acid, reference compound], the IC50 in assay [1] (Homo sapiens, Neutrophil, inhibition of FMLP induced superoxide, read-out: Inhibited superoxide generation, IC50) is 11000 nM. Also, in assay [1] (neutrophils), the “Effect on superoxide generation (in words)” value is “inhibited both superoxide generation and 5-lipoxygenase”. Moreover, in assay [2], the “Effect on 5-lipoxygenase (in words)” value is “inhibited both superoxide generation and 5-lipoxygenase”.
In the case of `CN(CCc1ccccn1)C(=O)CCSc1cc(C(C)(C)C)c(O)c(C(C)(C)C)c1` [Example 5, 3-[[3,5-bis(1,1-dimethylethyl)-4-hydroxyphenyl]thio]-N-methyl-N-[2-(2-pyridinyl)ethyl]propanamide monohydrochloride], in assay [1] (Homo sapiens, Neutrophil), the activation at 5 µM was found to be 50% and the activation at 10 µM was determined as 227%.
As to `Cc1cccc(C)c1NC(=O)CCSc1cc(C(C)(C)C)c(O)c(C(C)(C)C)c1` [Example 7, 3-[[3,5-bis(1,1-dimethylethyl)-4-hydroxyphenyl]thio]-N-(2,6-dimethylphenyl)propanamide], the “Stimulation of FMLP Induced Superoxide: concentrations at which compound stimulates” value in assay [1] was in the range of 3 to 20 µM. For the same compound, the IC50 in assay [2] was 230 nM and 330 nM.
Turning to `CC(C)(C)c1cc(SCCC(=O)N2CCN(Cc3ccccc3)CC2)cc(C(C)(C)C)c1O` [Example 8, 1-[3-[[3,5-Bis(1,1-dimethylethyl)4-hydroxyphenyl]thio]-1-oxopropyl]-4-(phenylmethyl)piperazine], in assay [1] (Homo sapiens, Neutrophil), the activation at 5 µM came out at 150% and the activation at 10 µM came out at 206%. The compound also registered an IC50 in assay [2] of 160 nM.
Take `CC(C)C(O)CCSc1cc(C(C)(C)C)c(O)c(C(C)(C)C)c1` (centres unmarked) [Example 9, 2,6-bis(1,1-dimethylethyl)-4-[(3-hydroxy-4-methylpentyl)thio]phenol]: the “Stimulation of FMLP Induced Superoxide: concentrations at which compound stimulates” value in assay [1] is 5 to 50 µM. For the same compound, in assay [2], the IC50 worked out at 260 nM.
On the same counts, the results for `CC(C)C(C)(O)CCSc1cc(C(C)(C)C)c(O)c(C(C)(C)C)c1` (centres unmarked) [Example 10, 2,6-bis(1,1-dimethylethyl)-4-[(3-hydroxy-3,4-dimethylpentyl)thio]phenol] are 5 to 50 µM and 790 nM.
